{"source": "patent US20090155376A1", "about": "“PROTEIN HYDROLYSATE WITH ANTIDIABETIC EFFECT” (MG PHARMA INC., priority 2004, published 2009)", "system": "male and female ICR mice", "experiment": "Safety test, oral administration to mice", "assay_type": "in vivo", "details": "10 g/kg (maximum allowable dose) or greater", "description": "The peptide having the amino acid sequence Val-Val-Tyr-Pro (SEQ. ID. No. 1) prepared in Example 2 was orally administered to male and female ICR mice in an amount of 10 g/kg (maximum allowable dose) or greater, and there were no fatalities, thereby establishing the safety of the peptide.", "note": "Where a SMILES comes first, the peptide text is derived from it.", "data": [{"smiles": "CC(C)[C@H](N)C(=O)N[C@H](C(=O)N[C@@H](Cc1ccc(O)cc1)C(=O)N1CCC[C@H]1C(=O)O)C(C)C", "note": "[Peptide (VVYP), Val-Val-Tyr-Pro] (H-VVYP-OH)", "values": [{"measurement": "Fatalities", "value": "no fatalities"}]}]}
